Assay results as given in ChEMBL document CHEMBL4385613, “Discovery of Conformational Control Inhibitors Switching off the Activated c-KIT and Targeting a Broad Range of Clinically Relevant c-KIT Mutants” (J Med Chem, 2019).
Calls of active or inactive are those of the source. The rule behind the calls is not given here.

Columns and labels:
[1] = target: Mast/stem cell growth factor receptor Kit (Homo sapiens, UniProt P10721); test: Inhibition of unactivated recombinant human N-terminal 6x-His-tagged c-KIT (547 to 935 residues)/(694 to 753 residues deletion) expressed in baculovirus infected Sf9 insect cells assessed as decrease in poly (Glu,Tyr) 4:1 phosphorylation incubated for 30 mins followed by ATP addition and measured after 120 mins by Kinase Glo based luminescence assay
[2] = tested on: Mast/stem cell growth factor receptor Kit (Homo sapiens), P10721 [V654A]; test: Inhibition of human c-KIT ATP binding domain exon 13 V654A single mutant at 10 nM using poly (Glu,Tyr) 4:1 as substrate in presence of 33P-gamma-ATP by hotspot kinase assay relative to control
[3] = target: Mast/stem cell growth factor receptor Kit (Homo sapiens, UniProt P10721, K642E); test: Inhibition of human c-KIT ATP binding domain exon 13 K642E single mutant using poly (Glu,Tyr) 4:1 as substrate in presence of 33P-gamma-ATP by hotspot kinase assay
[4] = tested on: Mast/stem cell growth factor receptor Kit (Homo sapiens), P10721 [T670I]; test: Inhibition of human c-KIT ATP binding domain exon 14 T670I single mutant at 100 nM using poly (Glu,Tyr) 4:1 as substrate in presence of 33P-gamma-ATP by hotspot kinase assay relative to control
[5] = target: Mast/stem cell growth factor receptor Kit (Homo sapiens, UniProt P10721, V559D/V654A); test: Inhibition of human c-KIT […] V559D/V654A double mutant using poly (Glu,Tyr) 4:1 as substrate in presence of 33P-gamma-ATP by hotspot kinase assay
[6] = tested on: Mast/stem cell growth factor receptor Kit (Homo sapiens), P10721 [V560G,D816V]; test: Inhibition of human c-KIT A loop exon 11/17 V560G/D816V double mutant at 10 nM using poly (Glu,Tyr) 4:1 as substrate in presence of 33P-gamma-ATP by hotspot kinase assay relative to control
GISTT1 = test: Antiproliferative activity against human GISTT1 cells harboring heterozygous V560-Y578 del mutation assessed as reduction in cell viability by methylene blue staining based assay; format: functional
GIST48 = test: Antiproliferative activity against human GIST48 cells harboring c-KIT exon 11 homozygous primary missense V560D mutant and exon 17 heterozygous secondary D820A mutant assessed as reduction in cell viability by methylene blue staining based assay; format: functional
[7] = Antiproliferative activity against human GIST62 cells assessed as reduction in cell viability by methylene blue staining based assay; format: functional
[8] = tested on: Mast/stem cell growth factor receptor Kit (Homo sapiens), P10721 [UNDEFINED MUTATION]; test: Inhibition of c-KIT V560-L576 deletion/V654A double mutant phosphorylation in human GIST430 cells assessed as decrease in phosphorylation of MAPK at 10 to 100 nM measured after 24 to 72 hrs by Western blot analysis; format: cell-based
[9] = tested on: Mast/stem cell growth factor receptor Kit (Homo sapiens), P10721 [D820E]; conditions: at 100 nM
Description: Inhibition of human c-KIT A loop exon 17 D820E single mutant at 100 nM using poly (Glu,Tyr) 4:1 as substrate in presence of 33P-gamma-ATP by hotspot kinase assay relative to control

[10] = tested on: Mast/stem cell growth factor receptor Kit (Homo sapiens), P10721 [D820Y]; conditions: at 10 nM
Chain of Mast/stem cell growth factor receptor Kit (Homo sapiens), P10721 [D820Y] (P10721 whole entry D820Y): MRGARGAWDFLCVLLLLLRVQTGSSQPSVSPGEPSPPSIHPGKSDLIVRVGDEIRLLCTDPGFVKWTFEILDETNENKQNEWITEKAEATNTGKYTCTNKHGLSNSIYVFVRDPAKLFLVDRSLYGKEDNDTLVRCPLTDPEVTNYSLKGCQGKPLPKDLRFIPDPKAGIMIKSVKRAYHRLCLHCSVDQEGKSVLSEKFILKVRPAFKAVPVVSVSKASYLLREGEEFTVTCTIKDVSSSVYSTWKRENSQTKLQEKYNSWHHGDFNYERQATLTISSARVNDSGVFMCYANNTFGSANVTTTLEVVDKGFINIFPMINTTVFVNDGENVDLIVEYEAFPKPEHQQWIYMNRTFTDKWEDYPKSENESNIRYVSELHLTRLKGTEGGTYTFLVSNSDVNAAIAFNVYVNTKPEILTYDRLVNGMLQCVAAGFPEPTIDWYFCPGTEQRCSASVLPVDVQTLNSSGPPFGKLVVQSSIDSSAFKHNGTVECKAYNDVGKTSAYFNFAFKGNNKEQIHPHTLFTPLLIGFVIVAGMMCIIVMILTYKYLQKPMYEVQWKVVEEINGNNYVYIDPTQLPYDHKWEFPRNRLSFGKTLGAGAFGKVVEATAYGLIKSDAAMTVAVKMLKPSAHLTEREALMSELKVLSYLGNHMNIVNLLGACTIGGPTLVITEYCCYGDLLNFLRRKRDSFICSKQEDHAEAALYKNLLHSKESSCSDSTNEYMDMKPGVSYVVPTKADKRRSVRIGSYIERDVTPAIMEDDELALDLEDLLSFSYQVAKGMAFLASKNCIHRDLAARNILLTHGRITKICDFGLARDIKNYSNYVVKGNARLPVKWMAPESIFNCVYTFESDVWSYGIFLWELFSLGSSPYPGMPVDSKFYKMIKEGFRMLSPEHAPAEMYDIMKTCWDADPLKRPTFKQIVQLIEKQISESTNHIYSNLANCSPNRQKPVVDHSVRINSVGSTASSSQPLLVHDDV
Description: Inhibition of human c-KIT A loop exon 17 D820Y single mutant at 10 nM using poly (Glu,Tyr) 4:1 as substrate in presence of 33P-gamma-ATP by hotspot kinase assay relative to control

Chain of Mast/stem cell growth factor receptor Kit (Homo sapiens), P10721 [UNDEFINED MUTATION] (P10721 whole entry, looked up, stated change not applied): as the sequence (P10721 whole entry D820Y) above, with Y820D counted along it
Chain of Mast/stem cell growth factor receptor Kit (Homo sapiens, UniProt P10721, K642E) (P10721 26-976 K642E limits assumed): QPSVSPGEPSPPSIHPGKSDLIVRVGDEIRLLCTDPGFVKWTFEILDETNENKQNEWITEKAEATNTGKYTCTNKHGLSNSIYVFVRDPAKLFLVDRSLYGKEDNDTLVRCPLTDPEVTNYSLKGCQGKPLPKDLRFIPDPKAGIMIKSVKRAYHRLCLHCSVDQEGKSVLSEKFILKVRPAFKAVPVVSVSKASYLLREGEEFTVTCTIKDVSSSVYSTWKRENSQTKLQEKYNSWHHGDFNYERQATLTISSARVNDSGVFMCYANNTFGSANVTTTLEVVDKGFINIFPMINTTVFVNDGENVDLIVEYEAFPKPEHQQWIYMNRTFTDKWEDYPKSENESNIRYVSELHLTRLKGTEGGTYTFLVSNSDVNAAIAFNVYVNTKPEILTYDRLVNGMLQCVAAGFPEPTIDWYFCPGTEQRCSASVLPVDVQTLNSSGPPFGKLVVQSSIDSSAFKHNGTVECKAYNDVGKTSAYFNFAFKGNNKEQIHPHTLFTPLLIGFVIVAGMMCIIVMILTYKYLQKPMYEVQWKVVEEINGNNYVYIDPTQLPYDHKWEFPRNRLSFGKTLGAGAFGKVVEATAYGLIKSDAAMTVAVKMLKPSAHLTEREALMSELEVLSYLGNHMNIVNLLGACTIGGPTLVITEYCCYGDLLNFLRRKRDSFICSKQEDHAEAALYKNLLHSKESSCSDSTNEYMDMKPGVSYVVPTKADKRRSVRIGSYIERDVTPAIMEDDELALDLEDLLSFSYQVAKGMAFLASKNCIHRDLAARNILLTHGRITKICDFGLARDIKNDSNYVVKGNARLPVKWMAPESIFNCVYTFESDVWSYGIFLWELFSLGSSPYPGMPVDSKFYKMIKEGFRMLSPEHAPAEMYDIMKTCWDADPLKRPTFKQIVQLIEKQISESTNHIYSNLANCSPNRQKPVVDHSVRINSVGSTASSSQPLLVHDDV
Chain of Mast/stem cell growth factor receptor Kit (Homo sapiens), P10721 [D820E] (P10721 whole entry D820E): as the sequence (P10721 whole entry D820Y) above, with Y820E counted along it
Chain of Mast/stem cell growth factor receptor Kit (Homo sapiens), P10721 [V654A] (P10721 whole entry V654A, the tested form may be a part): as the sequence (P10721 whole entry D820Y) above, with V654A, Y820D counted along it
Chain of Mast/stem cell growth factor receptor Kit (Homo sapiens), P10721 [V560G,D816V] (P10721 whole entry V560G/D816V): as the sequence (P10721 whole entry D820Y) above, with V560G, D816V, Y820D counted along it
Chain of Mast/stem cell growth factor receptor Kit (Homo sapiens), P10721 [T670I] (P10721 whole entry T670I, the tested form may be a part): as the sequence (P10721 whole entry D820Y) above, with T670I, Y820D counted along it
Chain of Mast/stem cell growth factor receptor Kit (Homo sapiens, UniProt P10721, V559D/V654A) (P10721 26-976 V559D/V654A limits assumed): as the sequence (P10721 26-976 K642E limits assumed) above, with V534D, E617K, V629A counted along it

CCc1cc(NC(=O)Nc2ccc(-c3cnc(Nc4cc(N5CCN(CC)CC5)ncn4)s3)cc2)no1
IC50 [1]: 69 nM
inhibition [2]: 43%
IC50 [3]: 1.37 nM
inhibition [4]: 83%
IC50 [5]: 102 nM
inhibition [6]: 22%
GI50 (GISTT1): 2.2 nM
GI50 (GIST48): 2 nM
GI50 [7]: > 100 nM
inhibition [8]: Active
inhibition [9]: 100%
inhibition [10]: 99%
